We go through eight compounds from patent publication US10940149B1, “Kinase inhibitor salts and compositions thereof” (HANDA ONCOLOGY, LLC, priority 2018, dated 2021).

Data set [1] can be described thus: solubility of nilotinib salts, HPLC (Example 38A). It is filed as physicochemical. The note with it: 37 °C, pH 1, simulated gastric fluid, thermodynamic from solid.
Procedure: (§1) The reaction mass was filtered and the filtrate solution was measured by HPLC.
Data set [2] is described as follows: HPLC impurity and stability of dasatinib lauryl sulfate salts and capsules (Example 54). The data set is classed as physicochemical. The method, then: The RRT was determined using HPLC with the following parameters:
The mobile phase A was 0.05 M aqueous Ammonium Acetate (pH 5.25)/Acetonitrile/Methanol in a volume ratio of 90/5/5.
The mobile phase B was 0.05 M aqueous Ammonium Acetate (pH 5.25)/Acetonitrile/Methanol in a volume ratio of 10/85/5.
Additional methanol is added so the test sample is approximately 0.20 mg of dasatinib per mL.

Data set [3] in a line: HPLC impurity and stability of nilotinib lauryl sulfate salts and dosage forms (Example 62). The data set is classed as physicochemical. The method, then: Mobile phase A was 0.25% Formic Acid/acetonitrile in a volume ratio of 90/10.
Mobile phase B was 0.1% Formic Acid/acetonitrile in a volume ratio of 10/90.
Additional diluent is added so the test sample is approximately 0.10 mg of nilotinib per mL.
The test sample of the dosage forms prepared in Examples 60 F and 60 G were prepared by the following procedure:
1. Cut the tip of the capsule with scissors and squeeze the contents from the hole into the 100-mL volumetric flask. Cut the capsule into two parts and add the parts to the flask. Add 80% full of ethanol, sonicate for 10 minutes and stir at 800 rpm for 30 minutes to dissolve the contents completely.
2. Dilute to volume with ethanol, mix well by inverting the flask NLT 10 times
3. Pipette 3 ml into 25-mL amber volumetric flask and add ethanol to volume, mix well by inverting the flask NLT 10 times. The test sample is approximately 0.096 mg of nilotinib per mL.
The nilotinib dilauryl sulfate salt prepared in Example 26 were tested for impurities and stability using HPLC with the following parameters:
The test sample of the nilotinib dilauryl sulfate salt prepared in Example 26 were prepared by weighing about 10 mg of nilotinib dilauryl sulfate (equivalent to 5 mg of nilotinib) and transfer into a 25-mL amber volumetric flask, adding 20 mL of diluent (ethanol), sonicating for about 5 minutes and stirring at 800 rpms for about 5 minutes until the nilotinib dilauryl sulfate is dissolved. Additional diluent is added so the test sample is approximately 0.20 mg of nilotinib per mL.

Data set [4] in a line: solubility of dasatinib salts at 37° C., HPLC (Example 47A). It is filed as physicochemical. The following applies: for solubility: thermodynamic from solid.
Procedure: as §1
A short description of a further data set: physchem. The following applies: 37 °C, pH 1, simulated gastric fluid, thermodynamic from solid.
Data set [5] can be described thus: solubility of nintedanib salts at room temperature, HPLC (Example 25A). The data set is classed as physicochemical. The note with it: thermodynamic from solid.
Procedure: as §1
The mark [6] stands for this setting: 60° C./75% R.H. 1 week, HDPE bottle, HPLC Inertsil ODS-3 (NLB-2LS method).
The mark [7] stands for this setting: Room temp., HPLC Inertsil ODS-3 (NLB-2LS method).

Where a name gives a salt, the structure may show the parent alone.

Procedure for physchem: as §1

For `Cc1cn(-c2cc(NC(=O)c3ccc(C)c(Nc4nccc(-c5cccnc5)n4)c3)cc(C(F)(F)F)c2)cn1` [Nilotinib HCl], the solubility in data set [1] was 3800 µg/mL.

As to `CCCCCCCCCCCCOS(=O)(=O)O.Cc1nc(Nc2ncc(C(=O)Nc3c(C)cccc3Cl)s2)cc(N2CCN(CCO)CC2)n1` [Example 12, dasatinib monolauryl sulfate], in data set [2] (40° C./75% R.H., 1 Month), the “impurity at RRT 0.96” value is reported as 0.09, the “impurity at RRT 1.10 (2-Chloro-6-methylaniline)” value is given as 0.04 and the “impurity at RRT 1.31 (DAS-6)” value worked out at 0.02. Also, in data set [2] (40° C./75% R.H., 3 Months), the “impurity at RRT 0.87” value is given as 0.02, the “impurity at RRT 0.94 (DAS PIP)” value was 0.03, the “impurity at RRT 0.96” value is recorded as 0.10 and the “impurity at RRT 1.10 (2-Chloro-6-methylaniline)” value worked out at 0.03. For the same compound, the “impurity at RRT 1.31 (DAS-6)” value in data set [2] (40° C./75% R.H., 3 Months) was determined as 0.03. Moreover, in data set [2] (Initial), the “impurity at RRT 0.87” value was found to be 0.02, the “impurity at RRT 0.94 (DAS PIP)” value worked out at 0.02, the “impurity at RRT 0.96” value was 0.09 and the “impurity at RRT 1.10 (2-Chloro-6-methylaniline)” value stood at 0.02. Besides, the “impurity at RRT 1.31 (DAS-6)” value in data set [2] (Initial) was determined as 0.02.

On to `CCCCCCCCCCCCOS(=O)(=O)O.Cc1cn(-c2cc(NC(=O)c3ccc(C)c(Nc4nccc(-c5cccnc5)n4)c3)cc(C(F)(F)F)c2)cn1` [Example 46, nilotinib monolauryl sulfate], for which the “impurity at RRT 1.16” value in data set [3] (60° C./75% R.H. 2 weeks, HDPE bottle, HPLC Xterra RP18 (NLB-1LS method)) stood at 0.07%; in data set [3] (Room temp., HPLC Xterra RP18 (NLB-1LS method)) it was 0.07%.

In the case of `Cc1nc(Nc2ncc(C(=O)Nc3c(C)cccc3Cl)s2)cc(N2CCN(CCO)CC2)n1` [dasatinib], in data set [4], the “aqueous solubility, pH dependence” value is reported as “varied with pH”. Also, the solubility was 86.9 µg/mL in data set [4] (aqueous buffer, 0.05M acetate buffer, pH = 4.5); 0.18 µg/mL in data set [4] (aqueous buffer, 0.05M phosphate buffer, pH = 6.8); 654 µg/mL in data set [4] (simulated gastric fluid, 0.1N HCl, pH = 1.0).

In the case of `CCCCCCCCCCCCOS(=O)(=O)O.CCCCCCCCCCCCOS(=O)(=O)O.Cc1cn(-c2cc(NC(=O)c3ccc(C)c(Nc4nccc(-c5cccnc5)n4)c3)cc(C(F)(F)F)c2)cn1` [Example 26, nilotinib dilauryl sulfate], in data set [3] (setting [6]), the “impurity at RRT 0.81” value was determined as 0.05%, the “impurity at RRT 1.09” value came to 0.07%, the “impurity at RRT 1.16” value amounted to 0.11% and the “impurity at RRT 1.28” value was determined as 0.08%. Also, in data set [3] (setting [7]), the “impurity at RRT 1.09” value is 0.07%, the “impurity at RRT 1.16” value is recorded as 0.10% and the “impurity at RRT 1.28” value is reported as 0.02%.

As to `Cc1ccc(Nc2nccc(N(C)c3ccc4c(C)n(C)nc4c3)n2)cc1S(N)(=O)=O` [Pazopanib Hydrochloride, pazopanib hydrochloride], the solubility in the data set “physchem” was 3360 µg/mL.

In the case of `CCCCCCCCCCCCOS(=O)(=O)O.CCCCCCCCCCCCOS(=O)(=O)O.Cc1nc(Nc2ncc(C(=O)Nc3c(C)cccc3Cl)s2)cc(N2CCN(CCO)CC2)n1` [Example 13, dasatinib dilauryl sulfate], in data set [2] (40° C./75% R.H., 1 Month), the “impurity at RRT 0.87” value is 0.06, the “impurity at RRT 0.94 (DAS PIP)” value was determined as 0.09, the “impurity at RRT 0.96” value was 0.14 and the “impurity at RRT 1.31 (DAS-6)” value was 0.04. For the same compound, in data set [2] (Initial), the “impurity at RRT 0.87” value is reported as 0.06, the “impurity at RRT 0.94 (DAS PIP)” value stood at 0.09, the “impurity at RRT 0.96” value was 0.13 and the “impurity at RRT 1.31 (DAS-6)” value came out at 0.02.

As for `COC(=O)c1ccc2c(c1)NC(=O)/C2=C(\Nc1ccc(N(C)C(=O)CN2CCN(C)CC2)cc1)c1ccccc1` [nintedanib esylate], the solubility in data set [5] (aqueous buffer, 0.05 M acetate buffer, pH = 4.5) is 6260 µg/mL; in data set [5] (aqueous buffer, 0.05 M phosphate buffer, pH = 6.8), 2.2 µg/mL; in data set [5] (simulated gastric fluid, 0.1 N HCl, pH = 1.0), 107000 µg/mL.

For orientation: solubility means the dissolved amount per volume that the medium holds.
